Laboratory results from patent US8198450B2, “Quinolinone derivatives and their pharmaceutical compositions” (Novartis AG, priority 2006, dated 2012).

Assays:
[1] = clinic: treatment of asthma and chronic obstructive pulmonary disease; type: in vivo
stability of the salt = type: physicochemical; settings: before and after micronisation, with or without excipients, with and without moisture
solubility in ethanol = type: physicochemical
[2] = equilibration in solvents, crystalline form; type: physicochemical; settings: 1 day at 25° C. in water, ethanol and isopropanol
hygroscopicity = type: physicochemical

cough exhibited by certain patients on administration ([1]; particularly first administration)	stability (stability of the salt)	solubility in ethanol (solubility in ethanol)	change of crystalline form after equilibration [2]	hygroscopicity (hygroscopicity)	Compound	tested in the clinic for the treatment of asthma and chronic obstructive pulmonary disease ([1]; clinic)
cough	–	–	–	–	CCc1cc2c(cc1CC)CC(NC[C@H](O)c1ccc(O)c3[nH]c(=O)ccc13)C2.O=C(O)/C=C\C(=O)O [(R)-5-[2-(5,6-diethyl-indan-2-ylamino)-1-hydroxyethyl]-8-hydroxy-1H-quinolin-2-one maleate]	tested favourably
–	especially stable	low	no change of crystalline form	substantially not hydroscopic	CC(=O)O.CCc1cc2c(cc1CC)CC(NC[C@H](O)c1ccc(O)c3[nH]c(=O)ccc13)C2 [Example 15, (R)-5-[2-(5,6-diethyl-indan-2-ylamino)-1-hydroxyethyl]-8-hydroxy-1H-quinolin-2-one acetate]	–
–	especially stable	low	no change of crystalline form	substantially not hydroscopic	CCc1cc2c(cc1CC)CC(NC[C@H](O)c1ccc(O)c3[nH]c(=O)ccc13)C2 [Example 12, (R)-5-[2-(5,6-diethyl-indan-2-ylamino)-1-hydroxyethyl]-8-hydroxy-1H-quinolin-2-one glycolate]	–
–	especially stable	low	no change of crystalline form	substantially not hydroscopic	CCc1cc2c(cc1CC)CC(NC[C@H](O)c1ccc(O)c3[nH]c(=O)ccc13)C2.O=C(O)CC(=O)O [Example 21, (R)-5-[2-(5,6-diethyl-indan-2-ylamino)-1-hydroxyethyl]-8-hydroxy-1H-quinolin-2-one hydrogen malonate]	–
